Results reported in ChEMBL document CHEMBL1129182, “Oximes: A new class of methoxytetrahydropyranyl inhibitors of leukotriene biosynthesis with high in vitro and in vivo potency” (Bioorg Med Chem Lett, 1996).
Converted amounts (≈) assume the structure as drawn.

Experiments:
Homo sapiens = organism: Homo sapiens; experiment: In vitro inhibitory activity against LTB4 synthesis in A-23187 stimulated human whole blood (HB1).; format: functional
Rattus norvegicus = organism: Rattus norvegicus; experiment: compound was tested for oral activity in the rat using zymosan-inflamed air pouch exudate at 3 hrs post dose(RAP).; format: functional
[1] = Solubility was evaluated; format: physicochemical
[2] = pKa value was evaluated; format: physicochemical

SMILES: COC1(c2csc(Sc3ccc4c(c3)CC/C4=N\OCC#N)c2)CCOCC1
- IC50 (Homo sapiens): 40 nM

SMILES: COC1(c2cc(F)cc(Sc3ccc4c(c3)OCC/C4=N\O)c2)CCOCC1
- IC50 (Homo sapiens): 50 nM

SMILES: COC1(c2cc(F)cc(Sc3ccc(/C(C)=N/OCC#N)cc3)c2)CCOCC1
- IC50 (Homo sapiens): 20 nM

SMILES: COC1(c2cc(F)cc(Sc3ccc(/C(C)=N/OC(C)C)cc3)c2)CCOCC1
- IC50 (Homo sapiens): 920 nM

SMILES: COC1(c2cc(F)cc(Sc3ccc(/C(C)=N/OCCF)cc3)c2)CCOCC1
- IC50 (Homo sapiens): 40 nM

SMILES: COC1(c2cc(F)cc(Sc3ccccc3/C(C)=N/O)c2)CCOCC1
- IC50 (Homo sapiens): > 10000 nM

SMILES: CO[C@]1(c2cnc(Sc3ccc(/C(C)=N/O)cc3)s2)CCO[C@@H](C)C1
- IC50 (Homo sapiens): 40 nM
- ED50 (Rattus norvegicus): 0.3 mg/kg

SMILES: CO[C@]1(c2cnc(S(=O)(=O)c3ccc(/C(C)=N/OCC#N)cc3)s2)CCO[C@@H](C)C1
- solubility [1]: 1 µM (≈ 0.45 µg/mL)
- IC50 (Homo sapiens): 140 nM
- ED50 (Rattus norvegicus): 0.5 mg/kg

SMILES: COC1(c2cc(F)cc(Sc3ccc4c(c3)OCC/C4=N\OCC#N)c2)CCOCC1
- IC50 (Homo sapiens): 40 nM

SMILES: CO[C@]1(c2cnc(S(=O)(=O)c3ccc(/C(C)=N/O)cc3)s2)CCO[C@@H](C)C1
- solubility [1]: 31 µM (≈ 12.7 µg/mL)
- IC50 (Homo sapiens): 320 nM
- ED50 (Rattus norvegicus): 1 mg/kg

SMILES: COC1(c2csc(Sc3ccc4c(c3)OCC/C4=N\OCC#N)c2)CCOCC1
- IC50 (Homo sapiens): 60 nM
- ED50 (Rattus norvegicus): 0.15 mg/kg

SMILES: CCOC(=O)CO/N=C(\C)c1ccc(Sc2cc(F)cc(C3(OC)CCOCC3)c2)cc1
- IC50 (Homo sapiens): 610 nM

SMILES: COC1(c2cc(F)cc(Sc3ccc(/C(C#N)=N/O)cc3)c2)CCOCC1
- pKa [2]: 6.2
- IC50 (Homo sapiens): 250 nM

SMILES: CO[C@]1(c2cnc(Sc3ccc(/C(C)=N/OCC#N)cc3)s2)CCO[C@@H](C)C1
- IC50 (Homo sapiens): 40 nM
- ED50 (Rattus norvegicus): 0.3 mg/kg

SMILES: CO/N=C(\C)c1ccc(Sc2cc(F)cc([C@@]3(OC)CCO[C@@H](C)C3)c2)cc1
- IC50 (Homo sapiens): 140 nM
- ED50 (Rattus norvegicus): 0.15 mg/kg

SMILES: CCOC(=O)/C(=N\O)c1ccc(Sc2cc(F)cc(C3(OC)CCOCC3)c2)cc1
- pKa [2]: 9.3
- IC50 (Homo sapiens): 170 nM

SMILES: CO[C@]1(c2cc(F)cc(Sc3ccc(/C(C)=N/OCC#N)cc3)c2)CCO[C@@H](C)C1
- IC50 (Homo sapiens): 40 nM
- ED50 (Rattus norvegicus): 0.15 mg/kg

SMILES: COC1(c2cc(F)cc(Sc3ccc4c(c3)CC/C4=N\O)c2)CCOCC1
- IC50 (Homo sapiens): 290 nM

SMILES: COC1(c2cc(F)cc(Sc3ccc(/C(=N/O)C(F)(F)F)cc3)c2)CCOCC1
- pKa [2]: 7.68
- IC50 (Homo sapiens): 280 nM

SMILES: COC1(c2cc(F)cc(Sc3ccc(/C(C)=N/OCCSc4nnc(C)s4)cc3)c2)CCOCC1
- IC50 (Homo sapiens): 230 nM

SMILES: COC(=O)C(C)(C)CO/N=C(\C)c1ccc(Sc2cc(F)cc(C3(OC)CCOCC3)c2)cc1
- IC50 (Homo sapiens): 420 nM

SMILES: COC1(c2cc(F)cc(Sc3ccc(/C(=N/O)SC)cc3)c2)CCOCC1
- IC50 (Homo sapiens): 190 nM

SMILES: CO[C@]1(c2cc(F)cc(S(=O)(=O)c3ccc(/C(C)=N/O)cc3)c2)CCO[C@@H](C)C1
- solubility [1]: 4.6 µM (≈ 1.94 µg/mL)
- IC50 (Homo sapiens): 20 nM
- ED50 (Rattus norvegicus): 0.1 mg/kg

SMILES: COC1(c2cc(F)cc(Sc3ccc(/C(C)=N/OC(C)=O)cc3)c2)CCOCC1
- IC50 (Homo sapiens): 50 nM

SMILES: CO[C@]1(c2cc(F)cc(Sc3ccc(/C(C)=N/O)cc3)c2)CCO[C@@H](C)C1
- solubility [1]: 0.6 µM (≈ 0.234 µg/mL)
- IC50 (Homo sapiens): 40 nM
- ED50 (Rattus norvegicus): 0.05 mg/kg

SMILES: COC1(c2cc(F)cc(Sc3ccc(/C(C)=N/OC(=O)C(C)(C)C)cc3)c2)CCOCC1
- IC50 (Homo sapiens): 40 nM

SMILES: CO/N=C(\C)c1ccc(Sc2cc(F)cc(C3(OC)CCOCC3)c2)cc1
- IC50 (Homo sapiens): 110 nM

SMILES: COC1(c2cc(F)cc(Sc3ccc(/C(=N/O)C(C)=O)cc3)c2)CCOCC1
- pKa [2]: 8.4
- IC50 (Homo sapiens): 850 nM

SMILES: COC1(c2csc(Sc3ccc4c(c3)CC/C4=N\O)c2)CCOCC1
- IC50 (Homo sapiens): 130 nM

SMILES: COC1(c2cc(F)cc(Sc3ccc4c(c3)CC/C4=N\OCC#N)c2)CCOCC1
- IC50 (Homo sapiens): 30 nM

SMILES: CCOC(=O)c1csc(CO/N=C(\C)c2ccc(Sc3cc(F)cc(C4(OC)CCOCC4)c3)cc2)n1
- IC50 (Homo sapiens): 150 nM

SMILES: COC1(c2csc(Sc3ccc4c(c3)OCC/C4=N\O)c2)CCOCC1
- IC50 (Homo sapiens): 40 nM

SMILES: COC1(c2cc(F)cc(Sc3ccc(/C(C)=N/OCC(=O)O)cc3)c2)CCOCC1
- IC50 (Homo sapiens): 740 nM

SMILES: CO[C@]1(c2cc(F)cc(S(=O)(=O)c3ccc(/C(C)=N/OCC#N)cc3)c2)CCO[C@@H](C)C1
- IC50 (Homo sapiens): 60 nM
- ED50 (Rattus norvegicus): 0.1 mg/kg

SMILES: C/C(=N\OC(=O)N(C)C)c1ccc(Sc2cc(F)cc(C3CCOCC3)c2)cc1
- IC50 (Homo sapiens): 2610 nM

SMILES: COC1(c2cc(F)cc(OCc3ccc4c(ccc(=O)n4C)c3)c2)CCOCC1 [ZD-2138]
- IC50 (Homo sapiens): 25 nM
